Measurements reported in patent US20100144704A1, “Method of reducing amyloid-beta peptide levels using a bisdioxopiperazine” (priority 2006, published 2010).
Values joined by “and” are separate entries in the source; they are usually repeats but may differ in a detail not shown here. Identical values can stand only once.

Assays:
Aβ1-42 peptide = assay: Brain Aβ1-42 by sandwich ELISA in double transgenic mice after 21 day razoxane treatment; format: in vivo; details: for Average Conc, Aβ1-42: group average; for Conc, Aβ1-42: individual mouse cerebral cortex sample
Method: (§1) Double transgenic male mice (APP Swedish mutation+PS1 mutation) express human amyloid precursor protein (APP) and amyloid-β peptide (Aβ) within their brain and form amyloid depositions from 4 months onward. Razoxane (ICRF 159) was administered by intraperitoneal (i.p.) injection once daily for 21 consecutive days to a group of such mice, 5 to 6 months of age and approximately 22 to 28 g in weight. […] Within three hours of the final razoxane/vehicle administration, animals were killed, their brain exposed and a 50-80 mg sample of cerebral cortex collected and frozen at […].

[1] = cited from earlier work
Aβ1-40 peptide = assay: Brain Aβ1-40 by sandwich ELISA in double transgenic mice after 21 day razoxane treatment; format: in vivo; details: for Average Conc, Aβ1-40: group average; for Conc, Aβ1-40: individual mouse cerebral cortex sample
Method: as §1

[2] = cited from earlier work; remark: listed apart in the source
[3] = in vivo; cited from earlier work
[4] = razoxane compared to dexrazoxane
Description: The pharmacokinetics of razoxane compared to those of dexrazoxane.

APP = APP Western blot in SHSY-5Y cell culture; format: cell-based, human; details: for APP, percent control levels / APP, % control levels: 16 h; for APP, % control levels: FIG. 5 study
Method: (§2) Cell Culture. The human neuroblastoma cell line, SHSY-5Y, was obtained from the American Type Culture Collection, culture medium was from Mediatech, Inc. (Herndon, Va.) and FCS from HyClone (Logan, Utah). Drug Treatment. […] Cells were allowed to grow in complete media (10% FCS, 2 mM glutamine in DMEM) for 2 days to reach 70% confluence. Thereafter, spent media was removed and replaced with fresh media (2 mL DMEM) containing 0 to 100 μM of freshly prepared compounds (clioquinol, razoxane and dexrazoxane. Cells were incubated at 37° C., 5% CO2 for 16 h. APP Western Blot and cell viability. Fifteen μg of protein from each sample was mixed with Laemmli buffer, boiled for 5 min at 100° C., and loaded onto a 10% SDS PAGE gel (Novex, San Diego, Calif.). […] The blots were incubated in secondary antibody, anti-mouse IgG—conjugated to horseradish peroxidase, for 30 min. Thereafter, samples were detected by chemiluminescence. Cell viability was assessed by a sensitive MTT assay. Values were expressed as the mean of between four and six independent assays and were statistically compared to control values. (See FIGS. 3-5).

[5] = tested on: SHSY-5Y human neuronal cells; assay: Cellular toxicity / cell viability by MTT assay; format: cell-based
Method: as §2

[6] = 30 mg/kg once daily x 21 days, male 5 month old transgenic mice
[7] = razoxane 20 mg/kg i.p. once daily x 21 days
[8] = razoxane 30 mg/kg i.p. once daily x 21 days

CC(CN1CC(=O)NC(=O)C1)N1CC(=O)NC(=O)C1 (racemic) [Razoxane, 1,2-bis(3,5-dioxopiperazin-1-yl)-propane]
Reduction of brain Aβ1-42 compared to the control group (Aβ1-42 peptide; [6]): 29% | Average Conc, Aβ1-42 (Aβ1-42 peptide; [7]): 564 pM | Conc, Aβ1-42 (Aβ1-42 peptide; [7]): 489 pM and 545 pM and 533 pM and 562 pM and 553 pM and 701 pM | Average Conc, Aβ1-42 (Aβ1-42 peptide; [8]): 326 pM | Conc, Aβ1-42 (Aβ1-42 peptide; [8]): 365 pM and 504 pM and 471 pM and 216 pM and 27.2 pM and 370 pM | Plasma half-life ([1]; humans): about 3.5 hours | Oral bioavailability ([1]; in vivo, po): orally bioavailable | Tolerance in humans ([1]; oral dose of 125 mg, twice a day for five days each week for up to two years): relatively well tolerated | Reduction of brain Aβ1-40 compared to the control group (Aβ1-40 peptide; [6]): 46% | Average Conc, Aβ1-40 (Aβ1-40 peptide; [7]): 375 pM | Conc, Aβ1-40 (Aβ1-40 peptide; [7]): 316.435 pM and 386.757 pM and 378.84 pM and 406.557 pM and 290.284 pM and 468.154 pM | Average Conc, Aβ1-40 (Aβ1-40 peptide; [8]): 213 pM | Conc, Aβ1-40 (Aβ1-40 peptide; [8]): 162.992 pM and 310.189 pM and 295.464 pM and 129.452 pM and 134.783 pM and 244.537 pM | Aqueous solubility (in words) [2]: relatively low aqueous solubility | Crossing of the blood/brain barrier [3]: cross the blood/brain barrier | Elimination from the body [4]: slower elimination | APP, percent control levels (APP; 0.5 μM, FIG. 4): 81% | APP, % control levels (APP; 0.5 μM): 75% | APP, percent control levels (APP; 2 μM, FIG. 4): 60% | APP, percent control levels (APP; 10 μM, FIG. 4): 53% | APP, % control levels (APP; 10 μM): 42% | Cellular toxicity against SHSY-5Y cells ([5]; concentrations up to 100 μM, 16 h, FIG. 3): well tolerated and without toxicity

CC(CN1CC(=O)NC(=O)C1)N1CC(=O)NC(=O)C1 (single isomer, unassigned; (+)) [Dexrazoxane, (+)-1,2-Bis(3,5-dioxopiperazin-1-yl)propane]
Aqueous solubility (in words) [2]: more soluble | Elimination from the body [4]: eliminated more rapidly | APP, % control levels (APP; 0.5 μM): 87% | APP, % control levels (APP; 10 μM): 59%

Oc1c(I)cc(Cl)c2cccnc12 [Clioquinol]
APP, percent control levels (APP; 0.5 μM, FIG. 4): 108% | APP, percent control levels (APP; 2 μM, FIG. 4): 116% | APP, percent control levels (APP; 10 μM, FIG. 4): 82% | Effect at lowering APP (in words) (APP; FIG. 4): without affect | Cell viability ([5]; 10 μM, associated with the 18% APP decline, FIG. 4): loss of cell viability
